Each structure is given as a SMILES string. Structures can show the parent of a compound that is named as a salt.

The first experiment deals with LC3. As to the kind of experiment: Autophagy activity in cultured cells by immunoblotting, treatment time (Experimental Example 3). Type of experiment: cell-based, human. Conditions: HeLa cells; 5 μM for 1, 3, 6, 12, 24, 48 hours or 10 μM for 24 hours; immunoblot, FIG. 4. The protocol:
In order to investigate the autophagy activity efficacy by the compounds (Examples 1-25), immunoblotting was performed in the same manner as in Experimental Example 2 using LC3 as a marker. As for the difference, in order to evaluate the treatment time required for activation and the activity retention time, 5 μM of the representative compounds selected among the present compounds (Example 5 (YTK-1005), Example 6 (YTK-1205), Example 7 (YTK-1305), Example 2 (YTK-2205), Example 3 (YTK-3305), Example 14 (YTK-1108), Example 8 (YTK-105), Example 9 (YTK-205)) were treated for 1, 3, 6, 12, 24, 48 hours. On the other hand, 10 μM of the representative compounds selected among the present compounds (Example 10 (YT 5-1), Example 11 (YT 5-2), Example 16 (YT 8-8), Example 15 (YT 8-7), Example 17 (YTK-107), Example 18 (YTK-207), Example 20 (ATB10041), Example 21 (ATB10042), Example 22 (ATB10043), Example 23 (ATB10044), Example 24 (ATB10045), Example 25 (ATB10046)) were treated for 24 hours.
(In western blotting, separated proteins are transferred to a membrane and probed.)
For the molecule `OCCNCc1cccc(OCCc2ccccc2)c1` [YTK-205, 2-((3-(phenethoxy)benzyl)amino)ethan-1-ol], the “autophagy activity (level of LC3)” value is on record as “increasing the autophagy activity”.

Consider `OCCNCc1cccc(OCc2ccccc2)c1` [YTK-105, 2-((3-(benzyloxy)benzyl)amino)ethan-1-ol], for which the “autophagy activity (level of LC3)” value is given as “increasing the autophagy activity”.

For the molecule `OCCNCc1ccc(OCc2ccccc2)c(O)c1` [YTK-HCl-1005, 2-(benzyloxy)-5-(((2-hydroxyethyl)amino)methyl)phenol], the “autophagy activity (level of LC3)” value is given as “increasing the autophagy activity”.

For the next experiment, the system named is p62 and LC3. Put plainly: Autophagy activity of control compounds by immunofluorescence staining and confocal microscopy (Experimental Example 6). Type of experiment: cell-based, human. Particulars: different concentrations, FIG. 7. The protocol: In order to confirm p62 protein activity and the activity level of autophagy phenomenon of control compounds (YOK-A-1104, YOK-G-1104, YTK-1005, YTK-1105-1), immunofluorescence staining was performed in the same manner as in Experimental Example 4 by using p62 and LC3 as markers. YOK-A-1104 and YOK-G-1104 are compounds having the following structures.
The compounds were treated at different concentrations, and intracellular puncta of p62 or LC3, that is, the degree to which autophagosome was formed and p62 was delivered was observed by a confocal microscopy.
For the molecule `OCCCCc1ccc(OCc2ccccc2)c(OCc2ccccc2)c1` [YTK HCl-1105-1, 4-(3,4-bis(benzyloxy)phenyl)butan-1-ol], the “p62 activation and oligomerization, delivery to autophagosome, autophagy activity (p62 and LC3 puncta) of control compounds” value was “allow the activation and oligomerization of p62 proteins and then show the efficacy of delivering them to autophagosome and simultaneously increasing autophagy activity”.

On to `COC(=O)CNC[C@@H](O)COc1ccc(OCc2ccccc2)c(OCc2ccccc2)c1` [YOK R-Gly-1104, Methyl (R)-(3-(3,4-bis(benzyloxy)phenoxy)-2-hydroxypropyl)glycineate], for which the “p62 activation and oligomerization, delivery to autophagosome, autophagy activity (p62 and LC3 puncta) of control compounds” value was “allow the activation and oligomerization of p62 proteins and then show the efficacy of delivering them to autophagosome and simultaneously increasing autophagy activity”.

`CCOC(=O)C(C)NC[C@@H](O)COc1ccc(OCc2ccccc2)c(OCc2ccccc2)c1` (stereo partly drawn) [YOK ALA-1104, Ethyl (R)-(3-(3,4-bis(benzyloxy)phenoxy)-2-hydroxypropyl)alanineate]: the “p62 activation and oligomerization, delivery to autophagosome, autophagy activity (p62 and LC3 puncta) of control compounds” value was “allow the activation and oligomerization of p62 proteins and then show the efficacy of delivering them to autophagosome and simultaneously increasing autophagy activity”.

For the molecule `OCCNCc1ccc(OCc2ccccc2)c(O)c1` [YTK-HCl-1005, 2-(benzyloxy)-5-(((2-hydroxyethyl)amino)methyl)phenol], the “p62 activation and oligomerization, delivery to autophagosome, autophagy activity (p62 and LC3 puncta) of control compounds” value was “allow the activation and oligomerization of p62 proteins and then show the efficacy of delivering them to autophagosome and simultaneously increasing autophagy activity”.

The next experiment deals with p62 and LC3. Put plainly: Autophagy activity by immunofluorescence staining and confocal microscopy (Experimental Example 5). Type of experiment: cell-based, human. Particulars: HeLa cells, 5 uM, 24 hours, FIG. 6. The protocol:
In order to confirm the p62 protein activity and the activity level of autophagy phenomenon by the compounds (Examples 1-25), immunofluorescence staining was performed using p62 and LC3 as markers. In order to confirm the p62 activity and the activity level of autophagy phenomenon by new p62 ligands and isomers thereof in cultured cells, HeLa cell line, which is a cell line derived from cervical cancer patient, was treated with the novel p62 ligand compounds (YTK-1205, YTK-1305, YTK-2205, YTK-3305, YTK-105, YTK-205, YT 5-1, YT 9-1, YT 5-2, YT 9-2, YT 8-2, YT 8-1, YTK-107, YTK-207) and cultured. Thereafter, as markers of the autophagy phenomenon, the expression level and location of LC3 puncta and the local co-existence with p62 puncta were observed.
For immunofluorescence staining, a cover glass was placed on a 24-well plate, cells were dispensed, cultured for 24 hours, and then treated with 5 uM of the novel p62 ligands according to the present invention. For the action of the compounds, additional cultures were performed for 24 hours, and then the medium was removed. Cells were fixed using formaldehyde at room temperature. In order to prevent non-specific staining, the cells were allowed to react with a blocking solution at room temperature for 1 hour, and then treated with LC3 antibody diluted at a certain ratio using the blocking solution, and allowed to reacted at room temperature for 1 hour. The antibody-treated cells were washed three times with PBS, and goat-derived secondary antibody was diluted at a certain ratio using the blocking solution, and then allowed to react at room temperature for 30 minutes. The cells were washed again with PBS three times, and for intracellular nuclear staining, the expression level, intracellular puncta formation and intracellular coexistence level of p62 and LC3 were observed through a confocal microscopy after DAPI staining.
`OCCNCc1cccc(OCCc2ccccc2)c1` [YTK-205, 2-((3-(phenethoxy)benzyl)amino)ethan-1-ol]: the “p62 activation and oligomerization, delivery to autophagosome, autophagy activity (p62 and LC3 puncta, local coexistence)” value was “allow the activation and oligomerization of p62 proteins, and then show the efficacy of delivering them to autophagosome and simultaneously increasing autophagy activity”.

Take `OCCNCc1cccc(OCc2ccccc2)c1` [YTK-105, 2-((3-(benzyloxy)benzyl)amino)ethan-1-ol]: the “p62 activation and oligomerization, delivery to autophagosome, autophagy activity (p62 and LC3 puncta, local coexistence)” value was “allow the activation and oligomerization of p62 proteins, and then show the efficacy of delivering them to autophagosome and simultaneously increasing autophagy activity”.

Another experiment relates to LC3. Put plainly: Autophagy activity in cultured cells by immunoblotting, concentration series (Experimental Example 2). Type of experiment: cell-based, human. Particulars: HeLa cells; 1, 2, 5, 10 and 20 μM, 24 hours; immunoblot, FIG. 3. The protocol:
In order to evaluate the autophagy activity efficacy by the compounds (Examples 1-25), HeLa cell line, which is a cell line derived from a cervical cancer patient, was cultured using a DMEM medium containing 10% FBS and 1% streptomycin/penicillin in an incubator with 5% carbon dioxide. As the representative compounds among the present compounds, the compounds of Examples 1, 2, 3, 5, 6, 7, 8, 9, 12 and 13 (Example 5 (YTK-1005), Example 1 (YTK-1105), Example 6 (YTK-1205), Example 7 (YTK-1305), Example 2 (YTK-2205), Example 3 (YTK-3305), Example 8 (YTK-105), Example 9 (YTK-205), Example 14 (YTK-1108), Example 12 (YT 5-7), Example 13 (YT 5-8)), Example 20 (ATB10041), Example 21 (ATB10042), Example 22 (ATB10043), Example 23 (ATB10044), Example 24 (ATB10045), and Example 25 (ATB10046)) were selected. In order to measure autophagy activity according to the treatment with these selected representative compounds, the respective cells were dispensed into 6 well plates. Additional cultures were performed for 24 hours so that the cells were completely attached to the surface of the plate. To find the concentration at which the respective compounds could increase the phenomenon of autophagy, the test compounds were diluted at 1, 2, 5, 10 and 20 μM and treated. After treatment with the respective compounds, the cells were cultured again in a cell incubator for 24 hours, and then the cells were collected. To extract proteins from the collected cells, 100 ul of lysis buffer (20 mM Tris (pH 7.4), 150 mM NaCl, 1% Triton X-100, 2 mM NaF, 2 mM EDTA, 2 mM beta-glycerophosphate, 5 mM sodium orthovanadate, 1 mM PMSF, leupeptin, aprotinin) was injected into each sample, and cells were lysed. Based on the measured total protein concentration, a sample buffer was added to each sample and allowed to react at 100° C. for 5 minutes. 5 ul was taken from the samples after the reaction, and dispensed into each well of acrylamide gel, and then immunoblotting was performed.
With `OCCNCc1cccc(OCCc2ccccc2)c1` [YTK-205, 2-((3-(phenethoxy)benzyl)amino)ethan-1-ol], the “autophagy activity (level of LC3)” value is “increasing the autophagy activity”.

Regarding `OCCNCc1cccc(OCc2ccccc2)c1` [YTK-105, 2-((3-(benzyloxy)benzyl)amino)ethan-1-ol], the “autophagy activity (level of LC3)” value is recorded as “increasing the autophagy activity”.

For the molecule `OCCNCc1ccc(OCc2ccccc2)c(O)c1` [YTK-HCl-1005, 2-(benzyloxy)-5-(((2-hydroxyethyl)amino)methyl)phenol], the “autophagy activity (level of LC3)” value is on record as “increasing the autophagy activity”.

These data come from patent US12427346B2, “P62 ligand compound, and composition for preventing, ameliorating or treating proteinopathies comprising the same” (AUTOTAC INC., priority 2018, dated 2025).
